Paper PMC7426938, “Induction of mitochondria-mediated apoptosis and suppression of tumor growth in zebrafish xenograft model by cyclic dipeptides identified from Exiguobacterium acetylicum” (Scientific Reports, 2020)

Legend:
[1] = tested on: zebrafish (ABiC) embryos; assay: Zebrafish embryo developmental toxicity assay; format: in vivo, zebrafish (Danio rerio); parameters: unit not given here
Description: Laboratory animal care principles were followed and experimental procedures were conducted following guidelines established by the Institutional Animal Care, and Use Committee (IACUC), and every effort was made to minimize suffering. This study was approved by the IACUC of the Kaohsiung Medical University, Kaohsiung, Taiwan (Approval No: KMU-IACUC-105213). The wild-type (ABiC strain) zebrafish (Danio rerio) were maintained at 28 °C on a 14 h/10 h light/dark cycle under standard circulating water systems and fed with hatched brine shrimp. Embryos were obtained by natural mating male fish with female fish (2:3) in a water tank and eggs were maintained in a plastic Petri dish containing ad libitum water. After 4 h incubation, embryos were randomly divided into five experimental groups (control (without treatment), sham/vehicle control (DMSO), and three treatment groups for each cyclic dipeptide. Each group had 45 embryos per test dosage. All DKPs were tested at different doses varied from 50, 100 and 200 μM, respectively. After drug treatment, embryos were maintained in an incubator at 28 °C. The survival rate and embryonic developmental changes were observed by using an inverted microscope every 24 h interval for 96 h (Nikon Eclipse TE2000-U, Tokyo, Jap).

[2] = tested on: CM-Dil labelled HT-29 xenograft in zebrafish embryos; assay: Zebrafish HT-29 xenograft antitumor assay; format: in vivo, zebrafish (Danio rerio); parameters: inhibition of tumor growth: concentration or dose not given beside the values; settings: for inhibition of tumor growth rate: 48 hpi; for inhibition of tumor growth rate / tumor growth reduction: 200 μM; for tumor growth reduction: 72 hpi; for inhibition of tumor growth: 24 hpi
Description: For cell labelling, HT-29 cells were incubated with cell tracker CM-Dil (Invitrogen, Carlsbad, CA, USA) dye at a final volume was 20 µL/mL for 25 min at 37 °C. To remove the unstrained dye, cells were washed twice and re-suspended with 1X PBS, pH 7.4 to a final density of 2.1 × 10^6 cells/mL. Prior transplantation, CM-Dil labelled cells were assessed for viability using trypan blue exclusion assay. More than > 90% of viable cells were used. For xenotransplantation, 48-hours post-fertilization (hpf) wild-type ABiC embryos were anaesthetized in 0.01% tricaine methanesulfonate (Sigma-Aldrich; MS222) solution containing 0.3% phenylthiocarbamide (PTU; Sigma-Aldrich; P7629). After anesthetization, CM-Dil (a lipophilic fluorescent tracking dye) labelled HT-29 cells grafted into the yolk sac of each zebrafish embryos by using a microinjector IM-300 (Narishige, Tokyo, Japan). After injection, embryos were incubated for 1 h at 28 °C. For confirmation of the visible cell mass at the injection site, zebrafish were transferred to an incubator and maintained at 37 °C.
[…] CM-Dil labelled HT-29 xenograft zebrafish embryos were randomly selected and hosed into 4 replicate wells in 12-well cell culture plates (5 embryos/well; 20 embryos/treatment group; 20 × 4 = 80). The different doses (50, 100 and 200 μM) of all DKPs were treated with transplanted embryos. Before DKPs treatment, the initial fluorescence intensity of transplanted cancer cells was measured at 0 hour post-injection (hpi). At the end of experiment 24, 48, and 72 hpi, all embryos were selected from each well and were photographed under an inverted fluorescence microscope (Nikon Eclipse TE2000-U, Tokyo, Japan). The following acquisition parameters were employed over time: Image scaling: Low = 130; High = 2,900; Exposure Time = 100 ms and Binning = 1. The fluorescence intensity of the tumor in the embryos was measured and the percentage of tumor growth inhibition was calculated according to the following formula: Inhibitionrate(%)=Z(Negativecontrol)-Z(Treatment)/Z(Negativecontrol)×100%

[3] = tested on: HT-29 cells; assay: Annexin V-FITC/PI double staining, flow cytometry; format: cell-based, human; settings: 24 h; for LA/NC Q2 late apoptotic or/and necrotic cells, fold change / Q1 + Q2 total dead cells, fold change / Q1 dead cells, fold change / Q2 + Q3 total apoptotic cells, fold change / EAC Q3 early apoptotic cells, fold change: vs CTL; for viability at 50 µM / viability at 100 µM / viability at 200 µM: Homo sapiens, HT-29, quadrant plot, read-out: Percentage of viable (Q4) cells
Description: The dead, necrotic, and apoptotic cells were analyzed by annexin V/PI double staining method, which was used to detect the externalization of phosphatidylserine (PS). Briefly, cells at the density of 4.5 × 10^4 cells/well were seeded into 6-well plates and treated with or without DKPs for 24 h. Subsequently, both floating and adherent cells were harvested by centrifugation at 1,500 rpm for 5 min, then re-suspended in 300 μL of 1X binding buffer, followed by 3 μL of annexin V-FITC and propidium iodide (PI) (Apoptosis Detection kit, Lead Gen, Taiwan) was added into each sample and incubated for 20 min at room temperature in the dark following the protocol recommended by the manufactures. Cells were analyzed by flow cytometry (FACS Calibur, Becton Dickinson, CA, USA) using WinMDI 2.9 software (La Jolla, CA, USA). The individual populations can be defined using quadrant gates, the number of cells in each quadrant indicated the following: Quadrant-1 (Q1): annexin V^-/PI^+ cells were considered as dead cells; Quadrant-2 (Q2): Annexin V^+/PI^+ cells were considered as late apoptotic and necrotic cells; Quadrant-3 (Q3): Annexin V^+/PI^− cells were considered as early apoptotic cells; Quadrant-4 (Q4): Annexin V^-/PI^- cells were considered as healthy. Data were analyzed using FlowJo V12.1 software (Tree stat, Stanford, CA, USA).

SMILES | Mean survival rate of zebrafish embryos ([1]; 24 hpf, 50 μM) | Mean survival rate of zebrafish embryos ([1]; 24 hpf, 100 μM) | Mean survival rate of zebrafish embryos ([1]; 24 hpf, 200 μM) | Mean survival rate of zebrafish embryos ([1]; 48 hpf, 50 μM) | Mean survival rate of zebrafish embryos ([1]; 48 hpf, 100 μM) | Mean survival rate of zebrafish embryos ([1]; 48 hpf, 200 μM) | Mean survival rate of zebrafish embryos ([1]; 72 hpf, 50 μM) | Mean survival rate of zebrafish embryos ([1]; 72 hpf, 200 μM) | Mean survival rate of zebrafish embryos ([1]; 96 hpf, 50 μM) | Mean survival rate of zebrafish embryos ([1]; 96 hpf, 100 μM) | Mean survival rate of zebrafish embryos ([1]; 96 hpf, 200 μM) | inhibition of tumor growth rate [2] [%] | tumor growth reduction [2] [%] | LA/NC Q2 late apoptotic or/and necrotic cells, fold change ([3]; 50 μM) [fold] | Q1 + Q2 total dead cells, fold change ([3]; 50 μM) [fold] | Q1 dead cells, fold change ([3]; 50 μM) [fold] | Q2 + Q3 total apoptotic cells, fold change ([3]; 50 μM) [fold] | LA/NC Q2 late apoptotic or/and necrotic cells, fold change ([3]; 100 μM) [fold] | Q1 + Q2 total dead cells, fold change ([3]; 100 μM) [fold] | Q1 dead cells, fold change ([3]; 100 μM) [fold] | further results
CC(C)C[C@@H]1NC(=O)[C@@H]2CCCN2C1=O [DKP-1, cyclo (L-Pro-L-Leu)] | 70.88 ± 3.44 | 73.33 ± 5.96 | 75 ± 5.77 | 70.88 ± 5.96 | 71.11 ± 1.54 | 73.33 ± 3.32 | 71.11 ± 3.44 | 68.88 ± 6.91 | 66.66 ± 5.96 | 71.11 ± 9.10 | 66.66 ± 5.96 | 57 | 68 | 2.3 | 1.7 | 1.5 | 2.3 | 2.6 | 3.0 | 3.1 | Mean survival rate of zebrafish embryos ([1]; 72 hpf, 100 μM): 71.11 ± 5.55; Q2 + Q3 total apoptotic cells, fold change ([3]; 100 μM): 3.6 fold; LA/NC Q2 late apoptotic or/and necrotic cells, fold change ([3]; 200 μM): 9.9 fold; Q1 + Q2 total dead cells, fold change ([3]; 200 μM): 3.3 fold; Q1 dead cells, fold change ([3]; 200 μM): 1.1 fold; Q2 + Q3 total apoptotic cells, fold change ([3]; 200 μM): 11.4 fold; viability at 50 µM ([3]; 50 μM): 83.3%; viability at 100 µM ([3]; 100 μM): 69.7%; viability at 200 µM ([3]; 200 μM): 56.3%
CC(C)[C@@H]1NC(=O)[C@@H]2CCCN2C1=O [DKP-2, cyclo (L-Pro-L-Val)] | 77.77 ± 5.41 | 82.22 ± 4.41 | 75.55 ± 3.44 | 80 ± 5.96 | 80 ± 5.96 | 75.55 ± 3.44 | 68.88 ± 3.44 | 71.11 ± 6.88 | 66.66 ± 5.96 | 71.11 ± 9.10 | 66.66 ± 5.96 | 58 | 78 | 2.5 | 1.7 | 1.5 | 2.7 | 3.5 | 3.1 | 3.0 | Mean survival rate of zebrafish embryos ([1]; 72 hpf, 100 μM): 77.33 ± 3.44; inhibition of tumor growth [2]: > 30%; EAC Q3 early apoptotic cells, fold change ([3]; 50 μM): 3.0 fold; EAC Q3 early apoptotic cells, fold change ([3]; 100 μM): 4.5 fold; Q2 + Q3 total apoptotic cells, fold change ([3]; 100 μM): 3.9 fold; EAC Q3 early apoptotic cells, fold change ([3]; 200 μM): 10.6 fold; LA/NC Q2 late apoptotic or/and necrotic cells, fold change ([3]; 200 μM): 11.2 fold; Q1 + Q2 total dead cells, fold change ([3]; 200 μM): 3.5 fold; Q1 dead cells, fold change ([3]; 200 μM): 1.2 fold; Q2 + Q3 total apoptotic cells, fold change ([3]; 200 μM): 11.0 fold; viability at 50 µM ([3]; 50 μM): 79.3%; viability at 100 µM ([3]; 100 μM): 64.2%; viability at 200 µM ([3]; 200 μM): 52.5%
O=C1N[C@@H](Cc2ccccc2)C(=O)N2CCC[C@@H]12 [DKP-3, cyclo (L-Pro-L-Phe)] | 80 ± 5.96 | 80 ± 5.96 | 75.55 ± 4.12 | 80 ± 5.96 | 80 ± 5.96 | 75.55 ± 4.12 | 77.77 ± 9.10 | 73.33 ± 5.96 | 68.88 ± 6.88 | 80 ± 5.96 | 69.22 ± 12 | 68 | 81 | 10.5 | 3.3 | 1.7 | 12.7 | 14.9 | 3.8 | 1.4 | Mean survival rate of zebrafish embryos ([1]; 72 hpf, 100 μM): 80 ± 5.96; inhibition of tumor growth [2]: > 30%; tumor growth inhibition rates compared to other peptides ([2]; all time intervals, different doses): highest tumor growth inhibition rates; EAC Q3 early apoptotic cells, fold change ([3]; 50 μM): 16.5 fold; EAC Q3 early apoptotic cells, fold change ([3]; 100 μM): 17.4 fold; Q2 + Q3 total apoptotic cells, fold change ([3]; 100 μM): 15.9 fold; EAC Q3 early apoptotic cells, fold change ([3]; 200 μM): 22.3 fold; LA/NC Q2 late apoptotic or/and necrotic cells, fold change ([3]; 200 μM): 15.6 fold; Q1 + Q2 total dead cells, fold change ([3]; 200 μM): 3.8 fold; Q1 dead cells, fold change ([3]; 200 μM): 1.3 fold; Q2 + Q3 total apoptotic cells, fold change ([3]; 200 μM): 18.1 fold; viability at 50 µM ([3]; 50 μM): 55.8%; viability at 100 µM ([3]; 100 μM): 50%; viability at 200 µM ([3]; 200 μM): 45.4%
O=C1N[C@@H](Cc2ccc(O)cc2)C(=O)N2CCC[C@@H]12 [DKP-4, cyclo (L-Pro-L-Tyr)] | 79 ± 3.96 | 82 ± 2.96 | 71.55 ± 5.12 | 79 ± 3.96 | 81 ± 2.96 | 70.34 ± 3.33 | 75.51 ± 3.32 | 70.54 ± 3.51 | 71.11 ± 2.44 | 79.3 ± 2.77 | 68.24 ± 5.89 | 60 | 74 | 8.4 | 3.0 | 1.5 | 12.6 | 14.6 | 3.9 | 1.0 | inhibition of tumor growth [2]: > 30%; EAC Q3 early apoptotic cells, fold change ([3]; 50 μM): 20.5 fold; EAC Q3 early apoptotic cells, fold change ([3]; 100 μM): 18.4 fold; Q2 + Q3 total apoptotic cells, fold change ([3]; 100 μM): 15.9 fold; EAC Q3 early apoptotic cells, fold change ([3]; 200 μM): 10.8 fold; LA/NC Q2 late apoptotic or/and necrotic cells, fold change ([3]; 200 μM): 18.0 fold; Q1 + Q2 total dead cells, fold change ([3]; 200 μM): 5.5 fold; Q1 dead cells, fold change ([3]; 200 μM): 2.1 fold; Q2 + Q3 total apoptotic cells, fold change ([3]; 200 μM): 15.5 fold; viability at 50 µM ([3]; 50 μM): 57.6%; viability at 100 µM ([3]; 100 μM): 52%; viability at 200 µM ([3]; 200 μM): 46.5%
